The source of these data is patent US20080139534A1, “Bisbenzamidines and bisbenzamidoximes for the treatment of human African trypanosomiasis” (XAVIER UNIVERSITY OF LOUISIANA, priority 2006, published 2008).

Experiment [1] deals with calf thymus DNA. Put plainly: Thermal denaturation study, DNA binding affinity (ΔTm). The following applies: 1:5 compound to base pair ratio.
Description: (§1) The binding affinity was measured by determining the change in the midpoint (Tm) of the thermal denaturation curves of calf thymus DNA as well as poly(dA-dT) at a 1:5 compound to base pair ratio.
For experiment [2], the system named is T. b. brucei Lab 110 EATRO. Put plainly: In vitro trypanocidal activity, bloodforms in HMI-18 medium, Coulter counts. It counts as cell-based, Trypanosoma brucei brucei. As to conditions: 48 h exposure, bloodforms; read-out: Lab 100 EATRO IC50.
Description: (§2) The compounds were tested against trypanosome isolates grown as blood forms in HMI-18 medium containing 20% horse serum in 24 well microplates at 37° C. in 5% CO2. Wells were inoculated with 1×10^5 trypanosomes. […] One-half the volume was replaced daily. Cell counts were made daily with a Coulter Counter, Model Z1 (Beckman Coulter, Miami, Fla., USA). Cells were diluted with Isoton I buffer (Beckman Coulter) and the aperture was standardized at 5.14 μm. Background checks were performed daily on 1:10 dilutions of medium. Counts, normalization, and coincident counts were accounted for by the standardized Coulter analysis program. Occasionally, hemocytometer counts were performed as a check on the validity of the Coulter program. IC50 values were determined after 48 h from semi-log plots and the values are the result of duplicate determinations. Initially a broad concentration curve was used and then a close concentration curve from which IC50 values were determined. Assays were done in duplicate and each point was the average of the two. Control cells grew to 5×10^6/ml.
(§3) Coulter counts were made daily and IC50 values determined after 48 hours exposure.
In experiment [3] the test system is T. b. rhodesiense KETRI 243. Described as above. The class given is cell-based, Trypanosoma brucei rhodesiense. As to conditions: 48 h exposure.
Description: as §2, §3
The test system of experiment [4] is poly(dA-dT). Put plainly: Thermal denaturation study, DNA binding affinity (ΔTm). The following applies: 1:5 compound to base pair ratio.
Description: as §1

A word on the IC50: it is the midpoint of a concentration-inhibition curve.
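For DNA Binding Δ Tm Calf thymus in this document: shift in midpoint melting temperature of calf thymus DNA thermal denaturation curves caused by compound binding, values averaged over at least two determinations.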
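For DNA Binding Δ Tm Poly (dA-dT) in this document: shift in the midpoint temperature of the thermal melting curve of poly(dA-dT), each value the mean of two or more independent determinations.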

With `CCCCCCCCCCCCNC(=N)c1ccc(N2CCN(c3ccc(C(=N)NCCCCCCCCCCCC)cc3)CC2)cc1.Cl.Cl` [compound 0136], the “DNA Binding Δ Tm Calf thymus” value in experiment [1] stood at 0.6 °C. In addition, the IC50 in experiment [2] worked out at 660 nM; in experiment [3], 125 nM. The “DNA Binding Δ Tm Poly (dA-dT)” value in experiment [4] was 0.0 °C.
The matching figures for `CCCCCCCNC(=N)c1ccc(N2CCN(c3ccc(C(=N)NCCCCCCC)cc3)CC2)cc1.Cl.Cl` [compound 0133]: 8.7 °C, 100 nM, 57 nM and 8.5 °C.
The matching figures for `Cl.Cl.N=C(NC1CC1)c1ccc(N2CCCN(c3ccc(C(=N)NC4CC4)cc3)CC2)cc1` [73C]: 15.3 °C, 870 nM, 810 nM and 23.6 °C.
For the compound `CC(C)CCNC(=N)c1ccc(N2CCN(c3ccc(C(=N)NCCC(C)C)cc3)CC2)cc1.Cl.Cl` [compound 0135], in experiment [1], the “DNA Binding Δ Tm Calf thymus” value worked out at 15.3 °C. For the same compound, the IC50 stood at 72 nM in experiment [2] and 61 nM in experiment [3]. Moreover, the “DNA Binding Δ Tm Poly (dA-dT)” value in experiment [4] was determined as 21.8 °C.
The matching figures for `CN1CCN(C)C1c1ccc(N2CCN(c3ccc(C4N(C)CCN4C)cc3)CC2)cc1` [compound 0108]: 2.4 °C, 6800 nM, 2320 nM and 1.8 °C.
The matching figures for `Cl.Cl.N=C(N)c1ccc(N2CCCN(c3ccc(C(=N)N)cc3)CC2)cc1` [7AM]: 15.0 °C, 2.15 nM, 2.7 nM and 23.1 °C.
The matching figures for `CC(=O)c1ccc(N2CCN(c3ccc(C(C)=O)cc3)CC2)cc1` [compound 0123]: 0.1 °C, 2350 nM, 1550 nM and 0.0 °C.
For the compound `c1ccc(N2CCN(c3ccccc3)C2c2ccc(N3CCN(c4ccc(C5N(c6ccccc6)CCN5c5ccccc5)cc4)CC3)cc2)cc1` [compound 0109], the “DNA Binding Δ Tm Calf thymus” value in experiment [1] is −1.2 °C. The figures for the IC50 in experiment [2] and in experiment [3] were 120 nM and 335 nM, respectively. The “DNA Binding Δ Tm Poly (dA-dT)” value in experiment [4] stood at 0.0 °C.
The matching figures for `O=C(Nc1ccc(C2=NCCN2)cc1)C1CC1C(=O)Nc1ccc(C2=NCCN2)cc1` (centres unmarked) [8IM]: 6.0 °C, over 1000 nM, 440 nM and 9.6 °C.
The matching figures for `C(=NNc1ccccc1)c1ccc(N2CCN(c3ccc(C=NNc4ccccc4)cc3)CC2)cc1` [compound 0116]: −0.2 °C, 1740 nM, 1870 nM and 0.0 °C.
The matching figures for `CCCCCCCCCNC(=N)c1ccc(N2CCN(c3ccc(C(=N)NCCCCCCCCC)cc3)CC2)cc1.Cl.Cl` [compound 0132]: 1.3 °C, 100 nM, 210 nM and 2.7 °C.
Take `CCCCNC(=N)c1ccc(N2CCCN(c3ccc(C(=N)NCCCC)cc3)CC2)cc1.Cl.Cl` [74N]: in experiment [1], the “DNA Binding Δ Tm Calf thymus” value came out at 11.8 °C. The results for the IC50 in experiment [2] and in experiment [3] were 180 nM and 79 nM, respectively. In experiment [4], the “DNA Binding Δ Tm Poly (dA-dT)” value was 13.3 °C.
The matching figures for `N#Cc1ccc(N2CCN(c3ccc(C#N)cc3)CC2)cc1` [compound 0101]: 0.1 °C, 2890 nM, 1050 nM and −0.3 °C.
The matching figures for `CN=C(N)c1ccc(N2CCN(c3ccc(C(N)=NC)cc3)CC2)cc1` [compound 0112, N,N′-Dimethyl 4,4′-(1,4-piperazinediyl)bisbenzenecarboxidamide]: 15.2 °C, 205 nM, 33 nM and 22.2 °C.
